Reference: patent publication US10538555B2, “Macrocyclic inhibitors of the PD-1/PD-L1 and CD80(B7-1)/PD-L1 protein/protein interactions” (BRISTOL-MYERS SQUIBB COMPANY, priority 2014, dated 2020)
*1 amine or outer side, *2 acyl side, *3 side chain or, on linkers, in order; H or OH if unused. Where a SMILES comes first, the peptide text is derived from it. Bridges are numbered along the chain shown (N, C = ends). [ ]: non-standard residue; d: D form. ξ: configuration not given here. Trp(βS-Me) = C[C@@H](c1c[nH]c2ccccc12)[C@H](N)C(=O)O; Trp(1-Me) = Cn1cc(C[C@H](N)C(=O)O)c2ccccc21; X4 = CC1(C)CC[C@H](C(=O)[*:2])N1[*:1]; Bta = N[C@@H](Cc1csc2ccccc12)C(=O)O; Hyp = O=C(O)[C@@H]1C[C@@H](O)CN1; NMeF = CN[C@@H](Cc1ccccc1)C(=O)O; NMeNle = CCCC[C@H](NC)C(=O)O; NMeA = CN[C@@H](C)C(=O)O; Dab = NCC[C@H](N)C(=O)O; ξC = NC(CS)C(=O)O; Sar = CNCC(=O)O

The compounds below were run against T1, Human PD-L1/PD-1 (Homo sapiens, UniProt Q9NZQ7) (assay: HTRF Human PD-L1/PD-1 binding assay (PD-1-Ig/PD-L1-His)). Conditions: PD-L1-His 10 nM, PD-1-Ig 20 nM; class symbol; read-out: HTRF Human PD-L1/PD-1 Binding Assay IC50 Range.
T1 construct: TVMV protease cleavage site (C); made in house; host or cells: HEK293T cells
T1 sequence (Q9NZQ7 with tags, fused parts or gaps): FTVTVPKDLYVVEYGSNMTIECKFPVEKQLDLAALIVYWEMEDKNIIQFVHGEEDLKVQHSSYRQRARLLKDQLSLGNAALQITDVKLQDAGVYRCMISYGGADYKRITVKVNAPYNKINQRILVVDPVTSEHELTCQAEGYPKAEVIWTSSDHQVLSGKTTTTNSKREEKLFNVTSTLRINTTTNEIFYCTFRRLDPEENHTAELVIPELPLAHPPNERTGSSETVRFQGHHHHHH
Summary of the method: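 Soluble HEK293T-expressed proteins: hPD-L1-His 10 nM, hPD-1-Ig 20 nM final. Cpd + PD-L1 15 min, + PD-1 15 min, + Eu anti-Ig 1 nM/APC anti-His 20 nM 30 min. Buffer dPBS, 0.1% BSA, 0.05% Tween-20. TR-FRET 665/620.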

SMILES	IC50
CCCC[C@H]1C(=O)N(C)CC(=O)N[C@@H](CC(=O)O)C(=O)NC(C(C)c2ccccc2)C(=O)N(C)[C@@H](Cc2ccccc2)C(=O)N[C@@H](Cc2ccc(O)cc2)C(=O)N(C)CC(=O)N[C@@H](Cc2c[nH]c3ccccc23)C(=O)N[C@@H](Cc2ccc(O)cc2)C(=O)N[C@@H](CC(C)C)C(=O)N[C@H](C(=O)NCC(N)=O)CSCC(=O)N[C@@H](Cc2ccccc2)C(=O)N(C)[C@@H](Cc2ccccc2)C(=O)N1C (single isomer, unassigned) [Example 3230-B]	100 to 990 nM
CCCC[C@H]1C(=O)N(C)[C@@H](CCCC)C(=O)N[C@@H](CC(C)C)C(=O)N[C@H](C(=O)NCC(N)=O)CSCC(=O)N[C@@H](Cc2ccc(O)cc2)C(=O)N(C)[C@@H](C)C(=O)N[C@@H](CC(N)=O)C(=O)N2CCC[C@H]2C(=O)N[C@@H](Cc2c[nH]cn2)C(=O)N[C@@H](CCC(N)=O)C(=O)N2C[C@H](O)C[C@H]2C(=O)N[C@@H]([C@@H](C)c2c[nH]c3ccccc23)C(=O)N[C@@H](CO)C(=O)N[C@@H](Cc2c[nH]c3ccccc23)C(=O)N1C [Example 10554] ({CH2CO}-Y[NMeA]NPHQ[Hyp][Trp(βS-Me)]SW[NMeNle][NMeNle]LCG-NH2; thioether N-14)	1 to 9.9 nM

Further lines, results first:

IC50	SMILES
1 to 9.9 nM	CCCC[C@H]1C(=O)N(C)[C@@H](CCCC)C(=O)N[C@@H](CCN)C(=O)NC(C(=O)NCC(N)=O)CSCC(=O)N[C@@H](Cc2ccc(O)cc2)C(=O)N(C)[C@@H](C)C(=O)N[C@@H](CC(N)=O)C(=O)N2CCC[C@H]2C(=O)N[C@@H](CC(N)=O)C(=O)N[C@@H](CC(C)C)C(=O)N2CCC[C@H]2C(=O)N[C@@H](Cc2csc3ccccc23)C(=O)N[C@@H](CO)C(=O)N[C@@H](Cc2c[nH]c3ccccc23)C(=O)N1C (stereo partly drawn) [Example 9163] ({CH2CO}-Y[NMeA]NPNLP[Bta]SW[NMeNle][NMeNle][Dab][ξC]G-NH2; thioether N-14)
1 to 9.9 nM	CCCC[C@H]1C(=O)N(C)[C@@H](CCCC)C(=O)N[C@@H](CCC(=O)O)C(=O)N[C@H](C(=O)NCC(N)=O)CSCC(=O)N[C@@H](Cc2ccc(O)cc2)C(=O)N(C)[C@@H](C)C(=O)N[C@@H](CC(=O)O)C(=O)N2CCC[C@H]2C(=O)N[C@@H](Cc2c[nH]cn2)C(=O)N[C@@H](CCC(N)=O)C(=O)N2C[C@H](O)C[C@H]2C(=O)N[C@@H]([C@@H](C)c2c[nH]c3ccccc23)C(=O)N[C@@H](CO)C(=O)N[C@@H](Cc2c[nH]c3ccccc23)C(=O)N1C [Example 10552] ({CH2CO}-Y[NMeA]DPHQ[Hyp][Trp(βS-Me)]SW[NMeNle][NMeNle]ECG-NH2; thioether N-14)
1 to 9.9 nM	CCCC[C@H]1C(=O)N(C)[C@@H](CCCC)C(=O)N[C@@H](CCC(=O)O)C(=O)N[C@H](C(=O)NCC(N)=O)CSCC(=O)N[C@@H](Cc2ccc(O)cc2)C(=O)N(C)[C@@H](C)C(=O)N[C@@H](CC(=O)O)C(=O)N2CCC[C@H]2C(=O)N[C@@H](Cc2cnc[nH]2)C(=O)N[C@@H](CCC(N)=O)C(=O)N2C[C@H](O)C[C@H]2C(=O)N[C@@H](Cc2c[nH]c3ccccc23)C(=O)N[C@@H](CO)C(=O)N[C@@H](Cc2cn(C)c3ccccc23)C(=O)N1C [Example 1500] ({CH2CO}-Y[NMeA]DPHQ[Hyp]WS[Trp(1-Me)][NMeNle][NMeNle]ECG-NH2; thioether N-14)

Same assay, conditions: PD-L1-His 10 nM, PD-1-Ig 20 nM; read-out: HTRF Human PD-L1/PD-1 Binding Assay IC50

IC50	SMILES
1000 nM	CCCC[C@H]1C(=O)N(C)CC(=O)N[C@@H](CC(=O)O)C(=O)N[C@@H](C(C)C)C(=O)N(C)[C@@H](Cc2ccccc2)C(=O)N[C@@H](Cc2ccc(O)cc2)C(=O)N2[C@H](CCC2(C)C)C(=O)N[C@@H](Cc2c[nH]c3ccccc23)C(=O)N[C@@H](Cc2ccc(O)cc2)C(=O)N[C@@H](CC(C)C)C(=O)N[C@H](C(=O)NCC(N)=O)CSCC(=O)N[C@@H](Cc2ccccc2)C(=O)N(C)[C@@H](Cc2ccccc2)C(=O)N1C [Example 3210] ({CH2CO}-F[NMeF][NMeNle][Sar]DV[NMeF]Y[X4]WYLCG-NH2; thioether N-13)
